# Experimental data as given in patent US11565998B2, “Succinate prodrug, compositions containing the succinate prodrug and uses thereof” (ABLIVA AB, priority 2019, dated 2023).
# Tests used:
# [1] = Caco-2 bioavailability in vitro assay (apparent permeability); type: in vitro ADME; conditions: human; Caco-2, apical to basolateral, 0.01 mM, pH 7.4, 1 h, 37° C.
# Protocol: (§1) The cell penetrance and potential for oral bioavailability of Compound 1 was tested using a standard caco-2 bioavailability in vitro assay (in brief, confluent Caco-2 cells (L1, A. P., 1992; Grass, G. M; et al., 1992, Volpe, D. A., et al., 2001) in a 24 well Corning Costar Transwell format were provided by In Vitro Technologies Inc. (IVT Inc., Baltimore, Md., USA). The apical chamber contained 0.15 mL Hank's balanced buffer solution (HBBS) pH 7.4, 1% DMSO, 0.1 mM Lucifer Yellow. The basal chamber contained 0.6 mL HBBS pH 7.4, 1% DMSO. Controls and tests were incubated at 37° C. in a humidified incubator, shaken at 130 rpm for 1 h. Lucifer Yellow permeates via the paracellular (between the tight junctions) route only, a high Apparent Permeability (Papp) for Lucifer Yellow indicates cellular damage during assay and all such wells were rejected. Propranolol (good passive permeation with no known transporter effects) & acebutalol (poor passive permeation attenuated by active efflux by P-glycoprotein) were used as reference compounds. Compounds were tested in a uni- and bi-directional format by applying compound to the apical or basal chamber (at 0.01 mM). Compounds in the apical or basal chambers were analysed by HPLC-MS. Results were expressed as Apparent Permeability, Papp, (nm/s), in comparison to other succinate prodrugs, including a number from WO2015/155231.
# [2] = system: Caco-2 cells; assay: as above; type: in vitro ADME; conditions: Caco-2
# Protocol: as §1
# [3] = Solubility of batches of different crystallinity; type: physicochemical; conditions: HPLC-grade water, water, thermodynamic from solid, mainly amorphous material (as worded, refers to Example 10); read-out: aqueous solubility
# Protocol: Two batches of Compound 1 were generated with different crystallinity. Batch 2 had higher crystallinity than Batch 3, which is regarded as having a higher degree of amorphous Compound 1-Batch 2 is therefore regarded as a more crystalline batch, whereas Batch 3 is regarded as a more amorphous batch. The methods used are discussed in this document.
# A sample of the more amorphous Compound 1 batch 3 was added to PBS or water to a final concentration of 258 mg/mL and sonicated for 10 minutes, then shaken for 30 minutes.
# A sample of the more crystalline Compound 1 batch 2 was added to HPLC-grade water (Fisher) to a final concentration of 30 mg/mL and sonicated for 10 minutes, then shaken for 30 minutes.
# A sample of the more crystalline Compound 1 batch 2 was added to HPLC-grade water (Fisher) to a final concentration of 52 mg/mL and sonicated for 20 minutes, then shaken for 1 hour.
# A sample of the more crystalline Compound 1 batch 2 was added to HPLC-grade water (Fisher) to a final concentration of […] and sonicated for 20 minutes, then shaken for 1.5 hours.
# [4] = Mineral instability (inorganic salts in water); type: physicochemical; conditions: for Percentage of Compound 1 remaining compared to T = 0: 1 mg/ml, room temperature
# Protocol: Compound 1 Batch 14 (2-3 mg) was dissolved in water for injection at room temperature (WFI) (1 mg/ml) containing different sources of minerals commonly found in tap water (with different accompanying counter ions to be able to distinguish differences between the effects of cation or anion) and samples were taken at different time intervals for HPLC analysis.
# Mineral sources used in the form of inorganic salts:
# CuCl2, CaCl2), NiSO4, CoCl2, NH4Cl, MnCl2, NaF, NaNO3, CuSO4, Ca(NO3)2, AlSO4, CaCO3, (NH4)2CO3.
# [5] = In vivo pharmacokinetic studies
structure (smiles),measurement,setting,value
"COC(=O)CCC(=O)SCCNC(C)=O [Compound 1, Methyl 3-[(2-acetylaminoethylthio)carbonyl]propionate]","Papp A→B at 1 h, 0.01 mM",[1],0.412 ×10⁻⁶ cm/s
same,"Apical to Basolateral transfer, rank among prodrugs tested",[2],highest
same,solubility at 1.5 h,[3],850 mg/mL
same,Percentage of Compound 1 remaining compared to T = 0,"[4]; (NH4)2CO3 in water, batch 14, day 0",100%
same,Percentage of Compound 1 remaining compared to T = 0,"[4]; (NH4)2CO3 in water, batch 14, day 7",91.3%
same,Percentage of Compound 1 remaining compared to T = 0,"[4]; (NH4)2CO3 in water, batch 14, day 14",87.4%
same,Percentage of Compound 1 remaining compared to T = 0,"[4]; AlSO4 in water, batch 14, day 0",100%
same,Percentage of Compound 1 remaining compared to T = 0,"[4]; AlSO4 in water, batch 14, day 7",99.8%
same,Percentage of Compound 1 remaining compared to T = 0,"[4]; AlSO4 in water, batch 14, day 14",100%
same,Percentage of Compound 1 remaining compared to T = 0,"[4]; Ca(NO3)2 in water, batch 14, day 0",100%
same,Percentage of Compound 1 remaining compared to T = 0,"[4]; Ca(NO3)2 in water, batch 14, day 7",99.4%
same,Percentage of Compound 1 remaining compared to T = 0,"[4]; Ca(NO3)2 in water, batch 14, day 14",98.9%
same,Percentage of Compound 1 remaining compared to T = 0,"[4]; CaCO3 in water, batch 14, day 0",100%
same,Percentage of Compound 1 remaining compared to T = 0,"[4]; CaCO3 in water, batch 14, day 7",79.5%
same,Percentage of Compound 1 remaining compared to T = 0,"[4]; CaCO3 in water, batch 14, day 14",66.0%
same,Percentage of Compound 1 remaining compared to T = 0,"[4]; CaCl2 in water, batch 14, day 0",100%
same,Percentage of Compound 1 remaining compared to T = 0,"[4]; CaCl2 in water, batch 14, day 7",100%
same,Percentage of Compound 1 remaining compared to T = 0,"[4]; CaCl2 in water, batch 14, day 14",97.9%
same,Percentage of Compound 1 remaining compared to T = 0,"[4]; CoCl2 in water, batch 14, day 0",100%
same,Percentage of Compound 1 remaining compared to T = 0,"[4]; CoCl2 in water, batch 14, day 7",101%
same,Percentage of Compound 1 remaining compared to T = 0,"[4]; CoCl2 in water, batch 14, day 14",101%
same,Percentage of Compound 1 remaining compared to T = 0,"[4]; CuCl2 in water, batch 14, day 0",100%
same,Percentage of Compound 1 remaining compared to T = 0,"[4]; CuCl2 in water, batch 14, day 7",99.5%
same,Percentage of Compound 1 remaining compared to T = 0,"[4]; CuCl2 in water, batch 14, day 14",98.3%
same,Percentage of Compound 1 remaining compared to T = 0,"[4]; CuSO4 in water, batch 14, day 0",100%
same,Percentage of Compound 1 remaining compared to T = 0,"[4]; CuSO4 in water, batch 14, day 7",100%
same,Percentage of Compound 1 remaining compared to T = 0,"[4]; CuSO4 in water, batch 14, day 14",99.4%
same,Percentage of Compound 1 remaining compared to T = 0,"[4]; MnCl2 in water, batch 14, day 0",100%
same,Percentage of Compound 1 remaining compared to T = 0,"[4]; MnCl2 in water, batch 14, day 7",98.9%
same,Percentage of Compound 1 remaining compared to T = 0,"[4]; MnCl2 in water, batch 14, day 14",99.2%
same,Percentage of Compound 1 remaining compared to T = 0,"[4]; NH4Cl in water, batch 14, day 0",100%
same,Percentage of Compound 1 remaining compared to T = 0,"[4]; NH4Cl in water, batch 14, day 7",101%
same,Percentage of Compound 1 remaining compared to T = 0,"[4]; NH4Cl in water, batch 14, day 14",99.8%
same,Percentage of Compound 1 remaining compared to T = 0,"[4]; NaF in water, batch 14, day 0",100%
same,Percentage of Compound 1 remaining compared to T = 0,"[4]; NaF in water, batch 14, day 7",101%
same,Percentage of Compound 1 remaining compared to T = 0,"[4]; NaF in water, batch 14, day 14",100%
same,Percentage of Compound 1 remaining compared to T = 0,"[4]; NaNO3 in water, batch 14, day 0",100%
same,Percentage of Compound 1 remaining compared to T = 0,"[4]; NaNO3 in water, batch 14, day 7",99.2%
same,Percentage of Compound 1 remaining compared to T = 0,"[4]; NaNO3 in water, batch 14, day 14",99.4%
same,Percentage of Compound 1 remaining compared to T = 0,"[4]; NiSO4 in water, batch 14, day 0",100%
same,Percentage of Compound 1 remaining compared to T = 0,"[4]; NiSO4 in water, batch 14, day 7",98.4%
same,Percentage of Compound 1 remaining compared to T = 0,"[4]; NiSO4 in water, batch 14, day 14",99.1%
same,Percentage of Compound 1 remaining compared to T = 0,"[4]; WFl, batch 14, day 0",100%
same,Percentage of Compound 1 remaining compared to T = 0,"[4]; WFl, batch 14, day 7",98.7%
same,Percentage of Compound 1 remaining compared to T = 0,"[4]; WFl, batch 14, day 14",97.7%
same,degradation in aqueous solution with carbonate ions,[4]; vs other mineral salts,degrades more rapidly
same,brain penetration,[5],brain penetrant
same,oral bioavailability,[5],high oral bioavailability
